Experimental data reported in patent US20160289449A1, “PROTEIN-BASED BIOPLASTICS AND METHODS OF USE” (University of Georgia Research Foundation, Inc., priority 2015, published 2016).

Experiments:
bacteria = conditions: cited from earlier work
[1] = tested on: Gram (+) specie Bacillius subtilis; assay: Drug elution and zone of inhibition study (disk susceptibility, M02-A11); assay type: cell-based, Bacillus subtilis
Experimental: (§1) After preparation, the samples were then cut into disk-sized plastics that were applied to the surface of Mueller-Hinton agar dishes that had been already inoculated with either Gram (+) specie Bacillius subtilis or the Gram (−) specie Escherichia coli at a concentration of 1-5×10^8 cells/mL. After application, the plates were then incubated for five days 30° C., during which the zones of inhibition were measured every 24 hours to determine the change of diameter of the inhibition zone size over time. Samples were run in triplicate (n=3) for each plastic type-additive combination (as well as the LDPE plastic control samples) in order to ensure precision.
(§2) To compare the ability of plastics to elute drug and to determine the effect of the addition of LDPE into plastics, statistical analyses were performed by fitting a regression model.

[2] = tested on: Gram (−) specie Escherichia coli; assay: as above; assay type: cell-based
Experimental: as §1, §2

[3] = plastics with 15% of the additive, range over plastic types
[4] = plastics with the additive imbedded

For OCC(O)CO [glycerol], the “concentration required for bacteriocidial properties” value (bacteria) is listed as “at least 28%”.
In the case of O=C([O-])c1ccccc1.[Na+] [sodium benzoate], the “zone of inhibition at decreased amount of food preservative (in words)” value ([1]; 10% and 5% additive in the plastic) is reported as “unable to produce a zone of inhibition”.
For O=NO [sodium nitrite], the “inhibition zone after 5 days” value [2, 3] was 0 mm, the “zones of inhibition on inoculated petri dishes (in words)” value [2, 4] was “did not generate any zones of inhibition” and the “inhibition zone after 5 days” value [1, 3] was 0 mm. The “zones of inhibition on inoculated petri dishes (in words)” value [1, 4] was “did not generate any zones of inhibition”.
